The record followed here is publication PMC9146423, “Discovery of Nitro-azolo[1,5-a]pyrimidines with Anti-Inflammatory and Protective Activity against LPS-Induced Acute Lung Injury” (Pharmaceuticals, 2022).

Series [1] concerns LPS-stimulated peritoneal macrophages of C57bl/6j mice. Briefly: Cell viability of LPS-stimulated macrophages, MTT test. The series is classed as cell-based. Conditions: male, C57bl/6j, mouse, 24 h, 100 μM. On the procedure:
(§1) Peritoneal macrophages (PM) were isolated from the peritoneal exudate of 30 male C57bl/6j mice. To accumulate PM, 1 mL of 3% peptone solution was injected intraperitoneally. After 3 days, the mice were euthanized by cervical dislocation. Cells of peritoneal exudate were obtained by aseptic washing of the abdominal cavity with 5 mL of sterile Hanks’s solution (+4–6 °C) without calcium and magnesium ions. The total number and viability of cells were assessed in a Goryaev counting chamber (Russia) with a 0.4% trypan blue staining (Sigma-Aldrich, St. Louis, MO, USA). The cell concentration was adjusted to 1.0 × 10^6 cells/mL in DMEM (Gibco) supplemented with 2 mM L-glutamine (Gibco, Waltham, MA, USA), 10% heat-inactivated fetal bovine serum (BioClot, Bavaria, Germany), 100 U/mL penicillin, and […] streptomycin (Gibco) and plated 200 μL/well in 96-well transparent plates (SPL Life Sciences Co., Ltd., Pocheon-si, Korea). After 2 h at 37 °C in a humidified atmosphere with 5% CO2, the wells were washed to remove non-adherent cells. After 24 h of incubation, 20 μL of the supernatants were substituted with 20 μL of solutions of test compounds, followed by E. coli O127:B8 LPS (100 ng/mL final concentration) after 30 min. The experiments were run in 3 independent replicates.
(§2) The activity of lactate dehydrogenase (LDH) in a cell culture medium served as a marker of membrane permeability and cell death. Aliquotes of supernatants were taken after 24 h of inoculation with test compounds, mixed with 250 μL of […] NADH solution in 54 mM phosphate-buffered saline (pH 7.5). Then, 25 μL of a 6.48 mM pyruvate solution was added to the mixture. The optical density was followed at a wavelength of 340 nm for 20 min. The MTT-test was performed 24 h after incubations of cells with tested compounds. Briefly, 20 μL of MTT solution was added to each well, incubated at 37 °C in a humidified atmosphere containing 5% CO2 for 4 h. The culture medium was removed, the cells were lysed, and formazan crystals were dissolved in 150 μL DMSO. The plates were shaken at room temperature for 10 min, and the optical density was measured in a microplate reader Infinite M200 PRO (Tecan, Grödig, Austria) at a wavelength of 565 nm.
For orientation: Tetrazolium dyes change colour on reduction, which living cells bring about.

Experiment in series [2]: as above
The class given is cell-based. Conditions: male, C57bl/6j, mouse. On the procedure: as §1, §2

The test system of series [3] is C57BL/6J mice. Briefly: LPS-induced acute lung injury in mice. The class given is in vivo, mouse. As for the experimental part: The randomization of C57bl/6j mice into experimental and control groups was based on body weight and behavioral activity assessed in an open field test 24 h before the start of the experiment. The next day, mice were treated with vehicle or test compounds 1 h before intratracheal instillation of LPS solution in sterile saline.
The randomization of C57BL/6J mice was performed by body weight and motor activity in an open field test. Dexamethasone (5 mg/kg) and 9g (30 mg/kg) were administered intraperitoneally in 10 mL/kg sterile saline. The control animals received an equal volume of the vehicle. After 1 h, the mice were anesthetized with isoflurane inhalation until their breathing rate was decreased. The mice were suspended by the front incisors on an inclined surgical table, the tongue was pulled out with narrow curved tweezers, and 1 mg/mL of E. coli O127:B8 LPS (Sigma-Aldrich, St. Louis, MO, USA) in 1 mL/kg sterile saline was injected into the back of the oropharynx. Intact control animals received an equal volume of sterile saline similarly.
The animals were placed in the center of a round open field with an arena of 44 cm diameter and 32 cm wall height under 300 lux lighting. During 5 min of observation, horizontal motor activity, vertical motor activity, time spent in the central part, the number of exits to the central part, and exploratory activity parameters were recorded. Body temperature was determined rectally.
The mice were anesthetized with 500 mg/kg chloral hydrate (Sigma-Aldrich, St. Louis, MO, USA) intraperitoneally 24 h after LPS administration. Blood was taken by intracardiac puncture in test tubes with heparin. The blood samples were centrifuged at 1000 g and 4 °C for 15 min on a 2–16PK centrifuge (Sigma, Germany), and plasma was separated and stored at −80 °C until the assay. Thoracotomy was performed, the ligature was applied to the left bronchus and the trachea was cannulated with a 20 G needle. The right lung was washed twice with 0.7 mL of warm sterile saline. After combining aliquots, the bronchoalveolar lavage (BAL) was centrifuged at 800 g and 4 °C for 10 min. The supernatant was separated and stored at −80 °C until the assay. The residual cell pellet was resuspended in 50 μL of PBS for further study. The left lung was washed in saline and placed in 10% buffered formalin for morphological evaluation.
The total number of leukocytes in heparinized blood was determined after staining with methylene blue in Goryaev’s counting chamber at ×100 magnification. Smears of blood and BAL cell pellets were air-dried, fixed according to May–Grunwald for 3 min, and stained according to Romanowsky–Giemsa. After 30 min, the slides were washed, air-dried, and examined with immersion objective (×1000 total magnification). On each slide, a total of at least 100 cells were calculated.
The concentration of total protein in BAL supernatants was determined spectrophotometrically with the pyrogallol red method, and the protein in the blood plasma was determined with the biuret method using commercial kits (Vital, Saint Petersburg, Russia) and bovine serum albumin as the standard. The lung permeability index was calculated as the protein concentration in the BAL to plasma ratio.
Morphological markers of inflammation in lung tissue were assessed in a semi-quantitative way on paraffin sections stained with hematoxylin and eosin. The sections were examined under a light microscope (Zeiss, Germany) by a double-blind method. The score of inflammation was determined as follows: 0—the presence of single inflammatory cells; 1—weak inflammation, inflammatory cells infiltrate no more than 10% of the lung tissue, including interalveolar cell partitions; 2—moderate inflammation, inflammatory cells infiltrate no more than 50% of the structures of the lung, but the interstitial tissue is identified; 3—severe inflammation, inflammatory cells densely infiltrate more than 50% of the lung tissue and airways.

The mark [4] stands for this setting: 24 h after LPS, dexamethasone 5 mg/kg, 9g 30 mg/kg i.p.

Turning to `Cc1nc2nnnn2c(NCCc2ccc(O)cc2)c1[N+](=O)[O-]` [Compound 9g, N-[2-(4-Hydroxyphenyl)ethyl]-5-methyl-6-nitrotetrazolo-[1,5-a]pyrimidin-7-amine], in series [1], the “Cell Viability vs. LPS Control, MTT Test” value came to 84.65 ± 5.83%. In series [2], this compound displayed a CC50 at 24 h of over 100 µM. Also, in series [3] (24 h after LPS), the Blood leukocyte subpopulations result is “normalized leukocyte subpopulations to the values of intact animals” and the “CD68+ cells in lung tissue, immunostaining” value is on record as “decreased the immunoreactivity of the lung tissue”. For the same compound, in series [3] (24 h after LPS, H&E, semi-quantitative), the “LPS-induced lung lesions, histologic scoring (hemorrhage and neutrophil infiltration)” value was “significantly ameliorated”. Besides, in series [3] (setting [4]), the “Blood plasma IL-6 level” value was “normalized the blood plasma IL-6 level” and the “Permeability of pulmonary vessels (lung permeability index)” value is “prevent the increase in permeability of pulmonary vessels”. Moreover, the “Horizontal motor activity, open field test” value in series [3] (24 h after LPS, dexamethasone 5 mg/kg, 9g 30 mg/kg i.p. 1 h before LPS) was “restored motor activity of animals comparably to dexamethasone”. Also, the “Segmented neutrophils count in BAL (in words)” value in series [3] (24 h after LPS, monocytes in BAL increased) is “significantly decreased the segmented neutrophils count”. In addition, in series [3] (LPS-treated mice, dexamethasone 5 mg/kg, 9g 30 mg/kg i.p.), the “Spleen mass and lymphocyte content (markers of immunodepression)” value is “nonsignificant”. For the same compound, in series [3] (body temperature determined rectally), the LPS-induced hypothermia result is listed as “attenuated LPS-induced hypothermia”. The “Segmented neutrophils, share of BAL cells” value in series [3] (bronchoalveolar lavage 24 h after LPS, dexamethasone 5 mg/kg, 9g 30 mg/kg i.p.) was determined as 37.6%. Moreover, the “Number of center entries and time in the center, open field test” value in series [3] (dexamethasone 5 mg/kg, 9g 30 mg/kg i.p.) was “restored the number of center entries and time in the center to intact levels”.

The term CC50 denotes the concentration at which the toxic effect on the cells reaches its halfway point. Low values mean harm at low concentration, high ones better tolerance by the cells.
